Measurements: patent US20150072968A1, “Treating Infections with Ceftolozane/Tazobactam in Subjects Having Impaired Renal Function” (Calixa Therapeutics, Inc., priority 2013, published 2015)
Where two headings read alike, the source gives them in different places.

Columns and labels:
[1] = Pharmacokinetics of ceftolozane/tazobactam in healthy volunteers; type: in vivo, human
[2] = Population pharmacokinetic analysis of 10 clinical studies (Example 7); type: in vivo, human
From the text: Base model development. […] Intrinsic covariates analyzed included body weight, age, gender, ethnicity, and baseline calculated CrCL). The CrCL was estimated using the Cockcroft-Gault formula: […] […] Final population PK model: evaluation and performance. […] Smaller shrinkage ≦0.2 indicates good individual estimates.

[3] = Phase 1 single dose PK of 750 mg ceftolozane/tazobactam in severe renal impairment and ESRD on hemodialysis (Example 8); type: in vivo, human; conditions: for AUC(0-t) / Cmax / half-life / Tmax / AUC(0-inf) / clearance / Vd: both sexes, human, plasma; for Cmax: read-out: Cmax, Mean (CV %); for half-life: read-out: t1/2, Mean (CV %) (converted); for Tmax: read-out: tmax, Median (minimum, maximum); for AUC(0-inf): read-out: AUC∞, Mean (CV %); for clearance: read-out: CL, Mean (CV %) (converted); for Vd: read-out: Vss, Mean (CV %)
Experimental: This was a Phase 1, multicenter, prospective, open-label study of 750 mg ceftolozane/tazobactam (as CXA-201) administered IV in male and female adult subjects with severe renal impairment (estimated CLCR<30 mL/min) and subjects with end-stage renal disease (ESRD) on hemodialysis (HD). The primary objective of the study was to determine the PK profile of ceftolozane/tazobactam in subjects with severe renal impairment and subjects with ESRD on HD and to determine the effect of HD on the clearance of ceftolozane/tazobactam.
Subjects with severe renal impairment received a single IV 1-hour infusion of 750 mg ceftolozane/tazobactam on Day 1. […] Subjects in this cohort received an IV dose of 750 mg ceftolozane/tazobactam as a 1 hour infusion immediately after their first HD session on Day 1 (postdialysis, approximately 72 hours prior to the next HD session) and a second dose of ceftolozane/tazobactam approximately 2 hours before their second HD session on Day 4 of the study. Infusion of ceftolozane/tazobactam was completed approximately 1 hour before the start of HD.
Subjects in both cohorts had urine (if not anuric) and plasma samples collected for determination of levels of ceftolozane, tazobactam and the M1 metabolite of tazobactam; subjects in the ESRD on HD cohort also had dialysate fluid samples collected for PK assessment. Plasma, urine, and dialysate levels of ceftolozane, tazobactam, and its metabolite M1 collected over a prespecified interval were determined by LC/MS/MS assay.
All subjects underwent hemodialysis for 3 to 4 hours using a high-flux membrane (either 1.4, 1.8, or 1.9 m^2) on Days 1, 4, and 6 as scheduled. Average blood flow rate was 264 to 600 mL/min and average dialysis flow rate was either 600 or 800 mL/min for all subjects with ESRD.

clinical = conditions: human, in vivo
From the text: CXA-201 plasma concentrations from 6 subjects with ESRD following a single dose without HD and a second dose with HD were used to develop a pPK model (Phoenix NLME, Pharsight).

[4] = Phase I PK studies in subjects with varying degrees of renal function (Example 11); type: in vivo, human
From the text: Male and female subjects, aged 18 to 79 years, with varying degrees of renal function were enrolled in two, prospective, open-label, phase I studies of intravenous ceftolozane/tazobactam. A total of 36 subjects were enrolled into cohorts based on degree of renal function: normal (n=11), mild impairment (n=6), moderate impairment (n=7), severe impairment (n=6), and ESRD on HD (n=6). To ensure subjects with ESRD were receiving effective HD, a target adequacy of HD calculated from the pre- and post-blood urea nitrogen ratios (Kt/V) of at least 1.2 for a minimum of 3 months prior to enrollment was required. Renal impairment groups were classified according to the 2010 U.S.

[5] = cited from earlier work
[6] = cited from earlier work; remark: listed apart in the source
P. aeruginosa = conditions: neutropenic murine-thigh infection model; cited from earlier work
[7] = intravenous, 750 mg, ESRD on HD, second infusion Day 4, start of infusion to end of dialysis
[8] = iv, 750 mg, ESRD on HD, Day 1 IV infusion of 750 mg (non-hemodialysis phase)
[9] = iv, 750 mg, ESRD on HD, second IV infusion of 750 mg on Day 4 (during HD)
[10] = iv, 750 mg, severe renal impairment, single IV 1-hour infusion of 750 mg ceftolozane/tazobactam
[11] = moderate renal impairment, single 1,000 mg/500 mg dose
[12] = severe renal impairment, single 500 mg/250 mg dose

Which results are given for `Cn1c(N)c(NC(=O)NCCN)c[n+]1CC1=C(C(=O)[O-])N2C(=O)[C@@H](NC(=O)/C(=N\OC(C)(C)C(=O)O)c3nsc(N)n3)[C@H]2SC1` [Ceftolozane, (6R,7R)-3-[(5-amino-4-{[(2-aminoethyl)carbamoyl]amino}-1-methyl-1H-pyrazol-2-ium-2-yl)methyl]-7-({(2Z)-2-(5-amino-1,2,4-thiadiazol-3-yl)-2-[(1-carboxy-1-methylethoxy)imino]acetyl}amino)-8-oxo-5-thia-1-azabicyclo[4.2.0]oct-2-ene-2-carboxylate]?
clearance ([1]; human, plasma, intravenous, after a single dose of CXA-201, read-out: plasma CL): 68.3 to 112 mL/min; CL renal ([1]; human, urine and plasma, intravenous, after a single dose of CXA-201, read-out: renal clearance): 56.8 to 112 mL/min; excreted in the urine as unchanged parent drug ([1]; single 1.5 g intravenous dose of CXA-201, healthy male adults): greater than 95%; Vc ([2]; cIAI): 18.2 L; Vc ([2]; cUTI, at 74 kg body weight): 13.8 L; between-subject variability (BSV) of CL ([2]; final population PK model): 33.0%; clearance ([2]; human, plasma, intravenous, patients with cIAI, at CrCL=109 mL/min, read-out: CL (converted)): 104 mL/min; CL higher than that in healthy subjects ([2]; patients with cUTI and cIAI): about 20%; CL ([2]; patients with cUTI, at CrCL=109 mL/min): 6.18 L/h; AUC(0-t) ([3]; intravenous, 750 mg, ESRD on HD, second infusion Day 4, approximately 6 hours from start of infusion to end of dialysis, read-out: AUClast, Mean (CV %)): 87.5 µg·h/mL; Cmax [3, 7]: 40900 ng/mL; half-life [3, 7]: 1.25 h; Tmax [3, 7]: 1 h; AUC(0-t) ([3]; intravenous, 750 mg, subjects with ESRD, read-out: Exposure (AUC48h) After HD (Day 1), Median (Range)): 903 µg·h/mL; AUC(0-t) ([3]; intravenous, 750 mg, subjects with ESRD, read-out: Exposure (AUC48h) During HD (Day 3), Median (Range)): 298 µg·h/mL; AUC(0-inf) [3, 8]: 1680 µg·h/mL; clearance [3, 8]: 6.67 mL/min; Cmax [3, 8]: 44500 ng/mL; Vd [3, 8]: 19.2 L; half-life [3, 8]: 39.8 h; AUC(0-t) ([3]; iv, 750 mg, ESRD on HD, Day 1 IV infusion of 750 mg (non-hemodialysis phase), through 48 hours, read-out: AUClast, Mean (CV %)): 910 µg·h/mL; Cmax [3, 9]: 40900 ng/mL; half-life [3, 9]: 43.5 h; AUC(0-t) ([3]; iv, 750 mg, ESRD on HD, second IV infusion of 750 mg on Day 4 (during HD), through 44 hours, read-out: AUClast, Mean (CV %)): 304 µg·h/mL; AUC(0-t) ([3]; iv, 750 mg, severe renal impairment, single IV 1-hour infusion of 750 mg ceftolozane/tazobactam, through 48 hours, read-out: AUClast, Mean (CV %)): 511 µg·h/mL; Cmax [3, 10]: 49900 ng/mL; AUC(0-inf) [3, 10]: 537 µg·h/mL; clearance [3, 10]: 16.7 mL/min; Vd [3, 10]: 13.8 L; half-life [3, 10]: 11.1 h; Tmax ([3]; ESRD on HD, second IV infusion of 750 mg on Day 4 (during HD)): 1 h; AUC48h Ratio (Day 3:1), Median (Range) ([3]; subjects with ESRD, during HD vs after HD): 0.34 (0.26 − 0.48); Percent Removed, Median (Range) ([3]; subjects with ESRD, hemodialysis): 66 (52 − 74) Percent; Vd (clinical): 6 L; clearance (clinical): 5.67 mL/min; increase of CL by HD (clinical): 60 fold; increase of Vc by HD (clinical): 4.7 fold; extraction ratio ([4]; 1 h after the start of HD): 42%; extraction ratio ([4]; 2 h after the start of HD): 48%; median Cmax in plasma higher compared with normal renal function, dose normalized ([4]; ESRD during non-HD): 1.2 fold; average extraction ratio during HD ([4]; ESRD on HD): 46%; median RDHD (percent reduction in plasma concentration during HD) ([4]; ESRD on HD): 92%; reduction in overall exposure based on the AUC0-∞ on and off HD ([4]; ESRD on HD): approximately 66%; plasma concentration rebound peak following HD, of the original Cmax ([4]; ESRD, period following HD): approximately 17%; extraction ratio ([4]; at end of HD): 47%; clearance ([4]; both sexes, human, dialysate and plasma, intravenous, ESRD on HD, read-out: median dialysis clearance (CLD) (converted)): 95.8 mL/min; half-life ([4]; both sexes, human, plasma, intravenous, ESRD on HD, read-out: t1/2 during the HD period (converted)): 1.13 h; increase of median AUC0-∞ compared with normal renal function [4, 11]: 2.5 fold; increase of median Cmax compared with normal renal function [4, 11]: 1.2 fold; increase of median AUC0-∞ compared with dose-normalized exposure in normal renal function [4, 12]: 4.4 fold; increase of median Cmax compared with dose-normalized exposure in normal renal function [4, 12]: 1.3 fold; terminal elimination half-life (t½β) ([5]; healthy volunteers): approximately 2.5 hours; Terminal elimination half-lives (t1/2) ([5]; patients with normal renal function): approximately 2.5 h; protein binding [6]: approximately 20%; free-drug (f) % T>MIC associated with a 1-log10 CFU reduction from baseline (P. aeruginosa): 32.2; free-drug (f) % T>MIC associated with net bacterial stasis (P. aeruginosa): 24.8
